Laboratory results as given in US10189772B2, “Mixtures of chelating agents including an L-enantiomer-rich MGDA, and process for making such mixtures” (BASF SE, priority 2015, dated 2019).
Counter-ions that a name gives are not always drawn. Like-named read-outs stand apart in the source and are kept apart here.

How the values were obtained:
[1] = ambient temperature, no visible precipitation after 2 weeks
Procedure: In each case, the solubility was calculated to refer to pure MGDA, without hydrate water.
In addition, the concentrations of the saturated solutions at ambient temperature in dependence of the ee value of MGDA and depending on the concentration of (B) were determined.

[2] = aqueous solution, room temperature; cited from earlier work

Structure (SMILES) | concentration of saturated solutions ([1]; ee value of MGDA-Na3 11 %, addition of VDA-Na3 5.5 weight-%) [weight-%] | concentration of saturated solutions ([1]; ee value of MGDA-Na3 39 %, addition of VDA-Na3 2.8 weight-%) [weight-%] | concentration of saturated solutions ([1]; ee value of MGDA-Na3 39 %, addition of VDA-Na3 5.5 weight-%) [weight-%] | concentration of saturated solutions ([1]; ee value of MGDA-Na3 39 %, addition of VDA-Na3 8.3 weight-%) [weight-%] | concentration of saturated solutions ([1]; ee value of MGDA-Na3 82 %, addition of VDA-Na3 2.8 weight-%) [weight-%] | concentration of saturated solutions ([1]; ee value of MGDA-Na3 82 %, addition of VDA-Na3 8.3 weight-%) [weight-%] | concentration of saturated solutions ([1]; ee value of MGDA-Na3 82 %, addition of VDA-Na3 zero weight-%) [weight-%] | concentration of saturated solutions ([1]; ee value of MGDA-Na3 96 %, addition of VDA-Na3 5.5 weight-%) [weight-%] | concentration of saturated solutions ([1]; ee value of MGDA-Na3 96 %, addition of VDA-Na3 zero weight-%) [weight-%] | concentration of saturated solutions ([1]; ee value of MGDA-Na3 zero %, addition of VDA-Na3 zero weight-%) [weight-%] | concentration of solutions that can be made and stored [2]
CC(C(=O)O)N(CC(=O)O)CC(=O)O (centres unmarked) [MGDA-Na3, methyl glycine diacetic acid] | 49 | 48 | 47 | 43 | 58 | 53 | 46 | 57 | 49 | ≤40 | –
CC(C(=O)O)N(CC(=O)O)CC(=O)O (racemic) [racemic MGDA trisodium salt, methyl glycine diacetic acid] | – | – | – | – | – | – | – | – | – | – | about 40 % by weight
